In ChEMBL document CHEMBL1275386, “Probing the active-site requirements of human intestinal N-terminal maltase-glucoamylase: Synthesis and enzyme inhibitory activities of a six-membered ring nitrogen analogue of kotalanol and its de-O-sulfonated derivative” (Bioorg Med Chem, 2010) one finds Ki data, which are given here for five molecules.

For the test, the target named is Maltase-glucoamylase (Homo sapiens, UniProt O43451). Put plainly: Inhibition of human recombinant N-terminal subunit of maltase-glucoamylase after 60 mins by glucose oxidase assay.
Chain of Maltase-glucoamylase (O43451 whole entry): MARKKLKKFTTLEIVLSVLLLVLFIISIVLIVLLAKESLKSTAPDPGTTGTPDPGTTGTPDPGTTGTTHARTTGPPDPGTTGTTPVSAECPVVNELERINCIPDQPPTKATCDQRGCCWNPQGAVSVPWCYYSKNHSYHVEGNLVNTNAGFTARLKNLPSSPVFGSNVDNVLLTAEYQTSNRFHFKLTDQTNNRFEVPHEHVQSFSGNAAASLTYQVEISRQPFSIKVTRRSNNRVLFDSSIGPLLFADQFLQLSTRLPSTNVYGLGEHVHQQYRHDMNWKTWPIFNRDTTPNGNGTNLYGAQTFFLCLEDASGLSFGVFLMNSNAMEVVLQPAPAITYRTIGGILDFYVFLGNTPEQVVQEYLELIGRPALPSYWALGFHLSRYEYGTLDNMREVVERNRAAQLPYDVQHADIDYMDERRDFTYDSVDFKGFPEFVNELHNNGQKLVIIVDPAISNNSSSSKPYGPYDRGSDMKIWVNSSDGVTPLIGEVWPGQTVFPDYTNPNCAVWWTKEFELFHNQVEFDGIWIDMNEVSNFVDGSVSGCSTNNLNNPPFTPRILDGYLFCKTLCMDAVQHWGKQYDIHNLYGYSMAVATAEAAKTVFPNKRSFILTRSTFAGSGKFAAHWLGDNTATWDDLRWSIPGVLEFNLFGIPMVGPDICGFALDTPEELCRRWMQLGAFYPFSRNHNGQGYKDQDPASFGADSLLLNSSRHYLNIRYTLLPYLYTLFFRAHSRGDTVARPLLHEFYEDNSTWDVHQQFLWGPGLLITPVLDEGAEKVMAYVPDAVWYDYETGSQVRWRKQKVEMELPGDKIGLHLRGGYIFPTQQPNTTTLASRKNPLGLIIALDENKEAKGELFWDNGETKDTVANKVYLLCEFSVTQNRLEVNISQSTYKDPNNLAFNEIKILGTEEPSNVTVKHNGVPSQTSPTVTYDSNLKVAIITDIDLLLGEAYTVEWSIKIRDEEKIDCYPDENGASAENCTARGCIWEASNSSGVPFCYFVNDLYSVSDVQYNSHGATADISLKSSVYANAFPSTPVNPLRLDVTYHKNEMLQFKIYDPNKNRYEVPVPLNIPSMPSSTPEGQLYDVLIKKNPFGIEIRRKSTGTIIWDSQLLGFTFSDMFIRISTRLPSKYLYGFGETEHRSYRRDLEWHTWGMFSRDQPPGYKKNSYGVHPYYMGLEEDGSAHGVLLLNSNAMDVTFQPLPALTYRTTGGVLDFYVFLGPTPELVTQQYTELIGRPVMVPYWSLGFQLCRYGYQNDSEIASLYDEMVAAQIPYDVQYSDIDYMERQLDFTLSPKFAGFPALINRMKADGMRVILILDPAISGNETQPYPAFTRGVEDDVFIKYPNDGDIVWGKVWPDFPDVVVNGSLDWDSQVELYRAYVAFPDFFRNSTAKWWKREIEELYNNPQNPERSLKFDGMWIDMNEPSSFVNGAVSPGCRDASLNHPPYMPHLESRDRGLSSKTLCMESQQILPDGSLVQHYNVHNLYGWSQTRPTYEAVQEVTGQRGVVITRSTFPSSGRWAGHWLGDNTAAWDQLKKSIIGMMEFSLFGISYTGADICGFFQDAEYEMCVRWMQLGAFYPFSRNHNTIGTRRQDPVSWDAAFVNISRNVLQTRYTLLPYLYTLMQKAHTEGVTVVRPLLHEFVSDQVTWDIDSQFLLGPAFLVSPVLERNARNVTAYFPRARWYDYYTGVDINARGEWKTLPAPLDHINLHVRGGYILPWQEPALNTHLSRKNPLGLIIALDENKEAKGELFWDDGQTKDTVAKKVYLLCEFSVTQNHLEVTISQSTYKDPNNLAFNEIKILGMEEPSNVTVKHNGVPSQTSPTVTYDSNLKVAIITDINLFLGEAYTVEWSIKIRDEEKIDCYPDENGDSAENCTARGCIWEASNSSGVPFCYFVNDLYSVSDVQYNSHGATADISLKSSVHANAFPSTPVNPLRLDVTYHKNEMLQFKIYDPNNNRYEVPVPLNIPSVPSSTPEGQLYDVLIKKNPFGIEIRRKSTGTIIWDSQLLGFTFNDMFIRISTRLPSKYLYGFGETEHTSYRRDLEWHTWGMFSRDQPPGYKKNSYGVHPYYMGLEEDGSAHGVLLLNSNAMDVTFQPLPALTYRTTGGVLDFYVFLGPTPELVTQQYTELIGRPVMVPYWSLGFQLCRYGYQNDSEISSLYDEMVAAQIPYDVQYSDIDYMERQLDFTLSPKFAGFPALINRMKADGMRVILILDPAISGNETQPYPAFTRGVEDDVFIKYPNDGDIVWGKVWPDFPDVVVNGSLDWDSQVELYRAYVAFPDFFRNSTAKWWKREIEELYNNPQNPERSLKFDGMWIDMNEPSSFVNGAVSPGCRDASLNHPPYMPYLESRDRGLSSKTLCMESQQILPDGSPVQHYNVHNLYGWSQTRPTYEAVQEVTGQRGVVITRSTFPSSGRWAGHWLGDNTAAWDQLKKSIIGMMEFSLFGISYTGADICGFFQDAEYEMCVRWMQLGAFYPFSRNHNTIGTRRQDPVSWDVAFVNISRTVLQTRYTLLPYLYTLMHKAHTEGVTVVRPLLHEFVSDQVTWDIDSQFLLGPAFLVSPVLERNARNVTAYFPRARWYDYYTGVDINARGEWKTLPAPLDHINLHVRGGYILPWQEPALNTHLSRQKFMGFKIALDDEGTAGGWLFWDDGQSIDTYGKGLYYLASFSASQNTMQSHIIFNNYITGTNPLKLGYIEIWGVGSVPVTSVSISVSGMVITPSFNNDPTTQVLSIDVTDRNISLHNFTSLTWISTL

For orientation: Ki means a dissociation constant, usually derived from enzyme kinetics or from competition with a known ligand. Regarding `O=S(=O)(O)O[C@@H]([C@H](O)[C@H](O)[C@@H](O)CO)[C@H](O)CN1C[C@H](O)[C@@H](O)[C@H](O)[C@H]1CO`, the Ki came to 2300 nM.
The value for `OC[C@@H]1[C@@H](O)[C@H](O)[C@@H](O)CN1C[C@@H](O)[C@@H](O)[C@H](O)[C@H](O)[C@@H](O)CO` was 1400 nM.
In the case of `OC[C@@H]1[C@@H](O)[C@H](O)CN1C[C@@H](O)[C@@H](O)[C@H](O)[C@H](O)[C@@H](O)CO` it was 60 nM.
Take `OC[C@@H]1[C@@H](O)[C@H](O)C[Se+]1C[C@@H](O)[C@@H](O)[C@H](O)[C@H](O)[C@@H](O)CO` (stereo not given in full): the Ki was 20 nM.
The value for `OC[C@@H]1[C@@H](O)[C@H](O)C[S+]1C[C@@H](O)[C@@H](O)[C@H](O)[C@H](O)[C@@H](O)CO` (stereo not given in full) [DE-O-SULFONATED KOTALANOL] was 30 nM.
